Patent US20120009151A1, “Triazines And Related Compounds Having Antiviral Activity, Compositions And Methods Thereof” (priority 2007, published 2012)
pEC50: −log10 of the molar value. Where a name gives a salt, the structure may show the parent alone.

Key:
H77/JFH-1 chimeric HCVcc = assay: HCV cell culture (HCVcc) model, Renilla luciferase; format: cell-based; details: H77/JFH-1 HCVcc, Huh 7.5 cells, Renilla luciferase 72 hours post-infection

## Fc1ccc(CNc2nc(NCc3ccccc3F)nc(OCC(F)(F)F)n2)cc1
other
  melting point: 105 to 107 °C

## Oc1ccc(Nc2nc(NCc3ccco3)nc(Oc3ccc(O)cc3)n2)cc1
other
  melting point: 80 to 83 °C

## Cc1ccc(CNc2nc(OCC(F)(F)F)nc(Oc3cccc(C(F)(F)F)c3)n2)o1
other
  melting point: 116 to 118 °C

## CCOc1nc(NCc2ccco2)nc(N2CCN(Cc3ccccn3)CC2)n1
other
  melting point: 115 to 117 °C

## Fc1ccc(CNc2nc(OCc3ccccc3)nc(OCC(F)(F)F)n2)cc1
other
  melting point: 101 to 103 °C

## FC(F)(F)c1cccc(Nc2nc(NCc3ccco3)nc(OCc3ccncc3)n2)c1
other
  melting point: 124 to 126 °C

## CCNc1nc(NCCN2CCCC2)nc(Nc2ccc(OC)cc2)n1 (as salt: hydrochloride)
other
  melting point: 29 to 31 °C

## Oc1nc(NCc2ccc(F)cc2)nc(Nc2cccc(C(F)(F)F)c2)n1
other
  melting point: 266 to 268 °C

## Fc1ccc(CNc2nc(OCC(F)(F)F)nc(-c3ccccc3)n2)cc1
other
  melting point: 170 to 172 °C

## Fc1ccc(CNc2nc(Nc3cccc(Cl)c3)nc(OCC(F)(F)F)n2)cc1
other
  melting point: 148 to 150 °C

## C[C@@]1(O)[C@H](O)[C@@H](CO)O[C@H]1n1cnc2c(N)ncnc21 [Compound 2-CMA]
H77/JFH-1 chimeric HCVcc
  pEC50: 7.04

## Fc1ccc(CNc2nc(OCC(F)(F)F)nc(Oc3cccc(C(F)(F)F)c3)n2)cc1
other
  melting point: 107 to 109 °C

## CC(C)N1CCC(Nc2nc(NCc3ccc(F)cc3)nc(OCC(F)(F)F)n2)C1 (stereo not shown)
other
  melting point: 98 to 99 °C
